Assay [1] addresses T1, Bromodomain-containing protein 1 (Homo sapiens) (UniProt O95696).
T1 sequence (whole entry): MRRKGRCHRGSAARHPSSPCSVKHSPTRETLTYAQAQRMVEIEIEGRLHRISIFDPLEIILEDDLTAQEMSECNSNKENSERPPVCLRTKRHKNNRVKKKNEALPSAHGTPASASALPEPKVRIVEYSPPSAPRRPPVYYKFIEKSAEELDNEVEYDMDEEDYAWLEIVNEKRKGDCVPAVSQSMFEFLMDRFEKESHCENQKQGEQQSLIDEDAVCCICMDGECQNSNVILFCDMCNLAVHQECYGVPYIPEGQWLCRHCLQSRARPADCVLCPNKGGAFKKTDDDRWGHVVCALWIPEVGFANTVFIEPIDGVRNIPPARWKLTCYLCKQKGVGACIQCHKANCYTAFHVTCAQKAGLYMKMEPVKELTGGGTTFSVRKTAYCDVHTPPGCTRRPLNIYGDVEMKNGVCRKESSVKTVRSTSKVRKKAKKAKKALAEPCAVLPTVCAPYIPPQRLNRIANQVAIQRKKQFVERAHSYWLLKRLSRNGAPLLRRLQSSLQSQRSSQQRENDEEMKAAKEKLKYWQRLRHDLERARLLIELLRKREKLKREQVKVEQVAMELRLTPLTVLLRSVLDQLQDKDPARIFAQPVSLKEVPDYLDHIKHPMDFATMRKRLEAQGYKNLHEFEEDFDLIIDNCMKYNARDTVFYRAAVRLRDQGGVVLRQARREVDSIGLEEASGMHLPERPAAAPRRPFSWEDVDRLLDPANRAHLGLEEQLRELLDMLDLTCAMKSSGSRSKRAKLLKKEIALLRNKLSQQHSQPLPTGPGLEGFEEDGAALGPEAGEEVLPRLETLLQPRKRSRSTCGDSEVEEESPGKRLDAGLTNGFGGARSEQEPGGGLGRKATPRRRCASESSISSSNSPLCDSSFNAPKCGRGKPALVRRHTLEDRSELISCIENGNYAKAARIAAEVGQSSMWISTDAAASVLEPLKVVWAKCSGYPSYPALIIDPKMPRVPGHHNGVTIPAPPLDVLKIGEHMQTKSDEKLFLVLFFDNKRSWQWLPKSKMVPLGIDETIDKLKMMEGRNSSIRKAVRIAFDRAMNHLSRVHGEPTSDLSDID
In words: Binding affinity to BRPF2 (unknown origin) assessed as association constant at 12 uM by Isothermal titration calorimetry.

Assay [2] concerns the target T2, Bromodomain and PHD finger-containing protein 3 (Homo sapiens) (UniProt Q9ULD4).
T2 sequence (whole entry): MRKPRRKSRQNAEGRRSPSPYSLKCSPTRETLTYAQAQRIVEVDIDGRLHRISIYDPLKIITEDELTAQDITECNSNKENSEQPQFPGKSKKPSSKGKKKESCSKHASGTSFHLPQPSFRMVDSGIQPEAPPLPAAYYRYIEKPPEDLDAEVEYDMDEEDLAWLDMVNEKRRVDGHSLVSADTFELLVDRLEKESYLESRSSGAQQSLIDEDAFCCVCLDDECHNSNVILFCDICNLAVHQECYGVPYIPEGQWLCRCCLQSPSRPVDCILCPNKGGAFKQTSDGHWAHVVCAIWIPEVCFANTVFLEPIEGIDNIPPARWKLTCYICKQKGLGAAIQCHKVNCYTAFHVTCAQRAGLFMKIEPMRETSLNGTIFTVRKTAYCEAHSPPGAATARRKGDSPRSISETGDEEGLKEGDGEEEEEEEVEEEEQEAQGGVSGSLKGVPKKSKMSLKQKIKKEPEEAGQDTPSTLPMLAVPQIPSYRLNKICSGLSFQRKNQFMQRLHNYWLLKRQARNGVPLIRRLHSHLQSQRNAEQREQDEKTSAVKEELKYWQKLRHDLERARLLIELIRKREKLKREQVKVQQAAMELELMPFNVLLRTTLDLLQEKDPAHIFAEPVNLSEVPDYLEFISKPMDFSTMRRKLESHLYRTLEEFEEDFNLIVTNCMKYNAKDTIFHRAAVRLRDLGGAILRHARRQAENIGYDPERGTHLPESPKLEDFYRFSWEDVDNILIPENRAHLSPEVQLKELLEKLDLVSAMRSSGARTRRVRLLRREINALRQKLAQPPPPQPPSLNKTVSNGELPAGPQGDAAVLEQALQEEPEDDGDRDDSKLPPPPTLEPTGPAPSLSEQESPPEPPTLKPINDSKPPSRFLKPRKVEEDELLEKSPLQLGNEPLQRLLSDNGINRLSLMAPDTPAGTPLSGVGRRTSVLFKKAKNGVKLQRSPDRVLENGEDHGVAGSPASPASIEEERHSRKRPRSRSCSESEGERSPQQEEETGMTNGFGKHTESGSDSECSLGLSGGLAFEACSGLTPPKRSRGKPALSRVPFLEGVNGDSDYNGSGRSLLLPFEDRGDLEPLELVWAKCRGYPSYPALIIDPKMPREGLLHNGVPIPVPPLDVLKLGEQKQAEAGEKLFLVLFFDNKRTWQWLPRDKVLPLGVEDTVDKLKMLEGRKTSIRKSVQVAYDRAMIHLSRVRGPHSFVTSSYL
Briefly: Binding affinity to BRPF3 (unknown origin) assessed as change in enthalpy at 12 uM by Isothermal titration calorimetry.

Assay [3] deals with T1, Bromodomain-containing protein 1 (Homo sapiens). Briefly: Binding affinity to BRPF2 (unknown origin) assessed as change in entropy TdeltaS at 12 uM by Isothermal titration calorimetry.
The target of assay [4] is Adenosine receptor A1 (Homo sapiens) (UniProt P30542). In words: Binding affinity to A1 receptor (unknown origin) assessed as specific binding at 10 uM relative to control.
Assay [5] deals with 5-hydroxytryptamine receptor 6 (Homo sapiens) (UniProt P50406). In words: Binding affinity to 5HT6 (unknown origin) assessed as specific binding at 10 uM relative to control.
Chain of 5-hydroxytryptamine receptor 6 (Homo sapiens) (P50406 whole entry): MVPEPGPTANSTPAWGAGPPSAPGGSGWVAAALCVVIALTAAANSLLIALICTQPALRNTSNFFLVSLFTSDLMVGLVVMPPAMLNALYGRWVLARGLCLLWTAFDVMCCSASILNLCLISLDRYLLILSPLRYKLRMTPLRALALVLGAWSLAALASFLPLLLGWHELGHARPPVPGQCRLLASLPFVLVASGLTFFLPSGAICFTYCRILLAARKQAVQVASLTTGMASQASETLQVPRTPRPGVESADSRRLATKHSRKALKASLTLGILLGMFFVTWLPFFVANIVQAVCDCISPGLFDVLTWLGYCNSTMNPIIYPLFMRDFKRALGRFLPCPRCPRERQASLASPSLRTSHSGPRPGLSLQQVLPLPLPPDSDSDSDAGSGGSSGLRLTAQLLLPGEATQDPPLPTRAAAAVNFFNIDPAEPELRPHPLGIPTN
Assay [6] addresses Tyrosine-protein kinase BAZ1B (Homo sapiens) (UniProt Q9UIG0). To be noted: dose 10.0 µM.
Assay [7] has as its target Bromodomain adjacent to zinc finger domain protein 2A (Homo sapiens) (UniProt Q9UIF9). To be noted: dose 10.0 µM.
Assay [8] deals with Bromodomain-containing protein 2 (Homo sapiens) (UniProt P25440). The following applies: dose 10.0 µM.
Chain of Bromodomain-containing protein 2 (Homo sapiens) (P25440 whole entry, looked up): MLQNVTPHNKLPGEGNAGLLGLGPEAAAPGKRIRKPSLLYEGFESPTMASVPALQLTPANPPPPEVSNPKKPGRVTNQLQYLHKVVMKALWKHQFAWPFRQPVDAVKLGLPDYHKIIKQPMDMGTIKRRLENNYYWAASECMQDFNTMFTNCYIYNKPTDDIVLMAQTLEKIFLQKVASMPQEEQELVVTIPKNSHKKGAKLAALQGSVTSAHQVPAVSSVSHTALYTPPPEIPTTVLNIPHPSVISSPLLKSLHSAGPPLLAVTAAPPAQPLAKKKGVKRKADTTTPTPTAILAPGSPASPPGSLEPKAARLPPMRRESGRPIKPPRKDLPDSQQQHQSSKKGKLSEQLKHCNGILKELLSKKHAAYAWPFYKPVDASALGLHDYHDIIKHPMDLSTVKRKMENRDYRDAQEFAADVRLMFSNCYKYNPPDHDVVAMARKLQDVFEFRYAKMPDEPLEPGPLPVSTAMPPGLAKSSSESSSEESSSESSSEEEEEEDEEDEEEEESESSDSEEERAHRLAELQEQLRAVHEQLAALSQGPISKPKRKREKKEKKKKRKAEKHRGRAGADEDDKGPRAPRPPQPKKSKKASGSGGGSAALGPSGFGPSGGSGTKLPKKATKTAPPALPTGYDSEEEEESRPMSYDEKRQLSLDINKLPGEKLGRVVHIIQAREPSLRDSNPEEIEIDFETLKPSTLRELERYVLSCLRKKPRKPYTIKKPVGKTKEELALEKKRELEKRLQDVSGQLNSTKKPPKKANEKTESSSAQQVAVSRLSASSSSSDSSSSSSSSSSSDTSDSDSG
The target in assay [9] is Bromodomain-containing protein 4 (Homo sapiens) (UniProt O60885). To be noted: dose 10.0 µM.
For assay [10], the target named is Bromodomain-containing protein 9 (Homo sapiens) (UniProt Q9H8M2). The following applies: dose 10.0 µM.
Chain of Bromodomain-containing protein 9 (Homo sapiens) (Q9H8M2 whole entry): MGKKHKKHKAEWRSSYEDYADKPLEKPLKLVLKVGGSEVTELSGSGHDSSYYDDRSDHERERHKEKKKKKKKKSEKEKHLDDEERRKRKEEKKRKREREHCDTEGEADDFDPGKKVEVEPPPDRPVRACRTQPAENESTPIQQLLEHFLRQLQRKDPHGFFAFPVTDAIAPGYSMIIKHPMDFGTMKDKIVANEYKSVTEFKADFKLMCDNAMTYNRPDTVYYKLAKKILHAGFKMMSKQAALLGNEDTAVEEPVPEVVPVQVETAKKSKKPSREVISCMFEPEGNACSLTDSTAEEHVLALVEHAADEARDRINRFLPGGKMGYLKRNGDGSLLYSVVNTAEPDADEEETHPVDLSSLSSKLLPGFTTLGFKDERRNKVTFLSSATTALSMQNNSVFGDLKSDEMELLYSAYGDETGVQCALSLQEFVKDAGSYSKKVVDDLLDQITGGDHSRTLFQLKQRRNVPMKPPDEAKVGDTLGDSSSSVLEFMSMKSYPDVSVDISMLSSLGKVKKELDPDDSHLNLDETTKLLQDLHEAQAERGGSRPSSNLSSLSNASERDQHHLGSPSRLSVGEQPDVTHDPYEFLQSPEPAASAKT
A further assay is filed under the species Homo sapiens. The following applies: dose 10.0 µM.
Assay [11] has as its target T1, Bromodomain-containing protein 1 (Homo sapiens). To be noted: dose 10.0 µM.
Assay [12] concerns the target Bromodomain and WD repeat-containing protein 3 (Homo sapiens) (UniProt Q6RI45). The following applies: dose 10.0 µM.
Assay [13] addresses Protein polybromo-1 (Homo sapiens) (UniProt Q86U86). To be noted: dose 10.0 µM.

Chain of Protein polybromo-1 (Homo sapiens) (Q86U86 whole entry): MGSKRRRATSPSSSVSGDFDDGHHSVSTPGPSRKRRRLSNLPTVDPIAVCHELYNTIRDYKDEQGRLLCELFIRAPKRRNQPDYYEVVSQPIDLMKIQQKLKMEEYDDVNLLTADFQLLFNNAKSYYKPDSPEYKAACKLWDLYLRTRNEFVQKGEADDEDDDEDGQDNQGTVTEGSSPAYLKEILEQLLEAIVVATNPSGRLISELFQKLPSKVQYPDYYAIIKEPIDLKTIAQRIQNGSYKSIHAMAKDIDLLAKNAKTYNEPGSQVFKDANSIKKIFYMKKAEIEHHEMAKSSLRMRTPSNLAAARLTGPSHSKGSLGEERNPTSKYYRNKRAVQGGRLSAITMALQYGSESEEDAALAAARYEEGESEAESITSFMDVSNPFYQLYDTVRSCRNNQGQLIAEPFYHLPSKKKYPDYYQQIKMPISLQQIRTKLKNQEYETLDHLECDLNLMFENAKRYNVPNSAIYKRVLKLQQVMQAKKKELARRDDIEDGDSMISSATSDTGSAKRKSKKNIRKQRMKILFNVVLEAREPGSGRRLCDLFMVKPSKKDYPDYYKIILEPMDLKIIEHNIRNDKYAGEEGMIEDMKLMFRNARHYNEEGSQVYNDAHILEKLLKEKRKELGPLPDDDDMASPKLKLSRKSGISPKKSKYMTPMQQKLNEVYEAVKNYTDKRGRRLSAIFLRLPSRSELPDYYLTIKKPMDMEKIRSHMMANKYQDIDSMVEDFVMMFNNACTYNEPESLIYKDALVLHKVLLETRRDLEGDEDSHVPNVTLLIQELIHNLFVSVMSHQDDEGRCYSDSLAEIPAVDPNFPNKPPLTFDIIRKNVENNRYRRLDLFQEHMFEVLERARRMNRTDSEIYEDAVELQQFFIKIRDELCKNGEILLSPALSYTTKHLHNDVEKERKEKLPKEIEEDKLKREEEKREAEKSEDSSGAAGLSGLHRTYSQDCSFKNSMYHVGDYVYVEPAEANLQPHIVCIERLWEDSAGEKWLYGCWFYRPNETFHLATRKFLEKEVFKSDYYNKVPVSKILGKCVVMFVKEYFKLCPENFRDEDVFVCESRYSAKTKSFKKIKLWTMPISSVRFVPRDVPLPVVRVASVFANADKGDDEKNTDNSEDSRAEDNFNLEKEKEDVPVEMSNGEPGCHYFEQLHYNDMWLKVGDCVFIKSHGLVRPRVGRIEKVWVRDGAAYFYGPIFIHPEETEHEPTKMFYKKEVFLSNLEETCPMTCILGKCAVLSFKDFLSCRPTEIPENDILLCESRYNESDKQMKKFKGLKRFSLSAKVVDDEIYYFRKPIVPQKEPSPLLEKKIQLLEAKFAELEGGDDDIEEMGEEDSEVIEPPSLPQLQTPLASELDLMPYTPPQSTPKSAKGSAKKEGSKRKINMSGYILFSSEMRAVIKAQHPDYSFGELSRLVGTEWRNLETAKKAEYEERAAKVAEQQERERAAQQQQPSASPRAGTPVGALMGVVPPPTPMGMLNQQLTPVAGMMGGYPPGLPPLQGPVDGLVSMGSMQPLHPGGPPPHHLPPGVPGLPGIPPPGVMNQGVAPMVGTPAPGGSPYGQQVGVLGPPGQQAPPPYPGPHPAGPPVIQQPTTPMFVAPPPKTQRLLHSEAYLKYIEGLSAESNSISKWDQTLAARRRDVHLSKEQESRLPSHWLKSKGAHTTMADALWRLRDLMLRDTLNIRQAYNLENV
Chain of Tyrosine-protein kinase BAZ1B (Homo sapiens) (Q9UIG0 whole entry, the tested form may be a part): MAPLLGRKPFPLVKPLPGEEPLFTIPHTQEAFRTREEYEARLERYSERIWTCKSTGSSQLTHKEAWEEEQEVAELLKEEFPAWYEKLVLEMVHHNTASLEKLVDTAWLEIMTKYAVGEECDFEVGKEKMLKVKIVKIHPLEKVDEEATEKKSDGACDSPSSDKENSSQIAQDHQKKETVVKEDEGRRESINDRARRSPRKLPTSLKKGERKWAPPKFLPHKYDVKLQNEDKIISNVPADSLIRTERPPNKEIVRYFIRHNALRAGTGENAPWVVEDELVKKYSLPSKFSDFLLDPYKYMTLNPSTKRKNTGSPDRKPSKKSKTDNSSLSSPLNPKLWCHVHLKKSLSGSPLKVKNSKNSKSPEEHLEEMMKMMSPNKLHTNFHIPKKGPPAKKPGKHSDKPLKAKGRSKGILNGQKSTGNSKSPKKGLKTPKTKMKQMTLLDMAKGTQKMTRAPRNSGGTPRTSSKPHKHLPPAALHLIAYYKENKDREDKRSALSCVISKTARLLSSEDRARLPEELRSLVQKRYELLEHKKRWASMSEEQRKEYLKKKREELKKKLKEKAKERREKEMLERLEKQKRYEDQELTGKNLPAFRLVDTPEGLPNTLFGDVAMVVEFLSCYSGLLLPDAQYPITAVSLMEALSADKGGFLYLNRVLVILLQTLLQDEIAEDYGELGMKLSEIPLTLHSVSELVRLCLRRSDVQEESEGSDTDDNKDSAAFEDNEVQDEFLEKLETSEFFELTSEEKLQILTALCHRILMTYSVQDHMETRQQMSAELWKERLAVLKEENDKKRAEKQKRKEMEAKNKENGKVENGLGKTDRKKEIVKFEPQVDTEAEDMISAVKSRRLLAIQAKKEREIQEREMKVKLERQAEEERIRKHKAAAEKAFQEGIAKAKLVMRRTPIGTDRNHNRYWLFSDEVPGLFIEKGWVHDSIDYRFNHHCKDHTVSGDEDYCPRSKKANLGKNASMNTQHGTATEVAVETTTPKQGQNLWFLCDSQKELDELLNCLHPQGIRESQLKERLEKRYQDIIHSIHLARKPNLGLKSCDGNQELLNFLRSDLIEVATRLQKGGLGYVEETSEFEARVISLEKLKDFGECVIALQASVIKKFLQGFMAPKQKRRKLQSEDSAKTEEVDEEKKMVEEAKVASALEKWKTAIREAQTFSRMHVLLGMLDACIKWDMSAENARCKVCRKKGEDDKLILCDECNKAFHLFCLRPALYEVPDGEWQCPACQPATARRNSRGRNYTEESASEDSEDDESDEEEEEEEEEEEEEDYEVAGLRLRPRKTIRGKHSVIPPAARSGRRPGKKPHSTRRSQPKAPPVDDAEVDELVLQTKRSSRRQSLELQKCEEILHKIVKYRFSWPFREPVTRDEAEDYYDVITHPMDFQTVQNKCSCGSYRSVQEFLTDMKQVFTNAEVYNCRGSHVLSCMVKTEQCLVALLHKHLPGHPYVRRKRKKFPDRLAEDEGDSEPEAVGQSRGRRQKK

For `COc1cc2c(cc1NS(=O)(=O)c1ccc(Br)cc1C)n(C)c(=O)n2C`, the Ka in assay [1] is 1.98 10^6 M^-1. Besides, the deltaH in assay [2] is -7.37 kcal/mol. Besides, in assay [3], the TdeltaS is -1.2 kcal/mol. Besides, the Activity is 19.8% in [4] and 49.9% in [5]. For the same compound, the ΔTm in [6] worked out at 0.3 °C; in assay [7], 0.2 °C; in assay [8], 0.8 °C; in assay [9], 2 °C; in assay [10], 1 °C; in the assay listed under Homo sapiens, 0.5 °C. The figures for the ΔTm in assay [11], in assay [12] and in [13] were 3.1 °C, 1.3 °C and 0.4 °C, respectively.

Source of the values: ChEMBL document CHEMBL5715956, “Selective Targeting of Bromodomains of the Bromodomain-PHD Fingers Family Impairs Osteoclast Differentiation” (ACS Chem Biol, 2017).
